US10253002B2, “Compounds and methods of treating infections” (Neoculi Pty Ltd., priority 2013, dated 2019)
Converted amounts (≈) assume the structure as drawn. “And” between values parts separate entries of the source, which are not always exact repeats. Equal entries are not always repeated. Where two headings read alike, the source gives them in different places.

How the values were obtained:
Experiment in all cases: Broth microdilution MIC, Example 7 (NCL812 and analogues)
MRSA = type: cell-based, Staphylococcus aureus; conditions: for activity against MRSA among analogues: MIC testing, two MRSA strains; for MIC: Staphylococcus aureus
How it was run: (§1)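 Turbidity read visually and then at 600 nm defined the MIC (μg/ml), comparing drug-containing wells with a growth-control well lacking antimicrobial. Testing followed the CLSI broth microdilution method, in duplicate, using two strains per organism group.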

VRE = type: cell-based, Enterococcus spp.; conditions: for activity against VRE among analogues: MIC testing, two VRE strains; for MIC: Enterococcus, VRE, 24 h
How it was run: as §1

Escherichia coli = type: cell-based; conditions: E. coli, 24 hours; for MIC: Escherichia coli, read-out: MIC (μg/ml) at 24 hours E. coli
Pseudomonas aeruginosa = type: cell-based; conditions: for MIC: Pseudomonas aeruginosa, 24 h, read-out: MIC (μg/ml) at 24 hours P. aeruginosa, P. aeruginosa, 24 hours
[1] = MRSA 1, 24 hours, duplicate lines per compound
[2] = MRSA 2, 24 hours, duplicate lines per compound
[3] = VRE 1, 24 hours, duplicate lines per compound
[4] = VRE 2, 24 hours, duplicate lines per compound
[5] = MRSA, 24 h, read-out: MIC (μg/ml) at 24 hours MRSA 1, MRSA 1, 24 hours
[6] = MRSA, 24 h, read-out: MIC (μg/ml) at 24 hours MRSA 2, MRSA 2, 24 hours
[7] = read-out: MIC (μg/ml) at 24 hours VRE 1, VRE 1, 24 hours
[8] = read-out: MIC (μg/ml) at 24 hours VRE 2, VRE 2, 24 hours
[9] = MRSA, bioassay ranking, MRSA, read-out: MRSA

Structure (SMILES)	MIC (μg/ml) at 24 hours, MRSA 1 (MRSA; [1]) [µg/mL]	MIC (μg/ml) at 24 hours, MRSA 2 (MRSA; [2]) [µg/mL]	MIC (μg/ml) at 24 hours, VRE 1 (VRE; [3]) [µg/mL]	MIC (μg/ml) at 24 hours, VRE 2 (VRE; [4]) [µg/mL]	MIC (μg/ml) at 24 hours, E. coli (Escherichia coli; duplicate lines per compound) [µg/mL]	MIC (μg/ml) at 24 hours, P. aeruginosa (Pseudomonas aeruginosa; duplicate lines per compound) [µg/mL]	MIC (μg/ml) at 24 hours, MRSA 1 (MRSA; MRSA 1, 24 hours)	MIC (μg/ml) at 24 hours, MRSA 2 (MRSA; MRSA 2, 24 hours)	MIC (μg/ml) at 24 hours, VRE 1 (VRE; VRE 1, 24 hours) [µg/mL]	MIC (μg/ml) at 24 hours, VRE 2 (VRE; VRE 2, 24 hours) [µg/mL]	MIC (μg/ml) at 24 hours, E. coli (Escherichia coli) [µg/mL]	MIC (μg/ml) at 24 hours, P. aeruginosa (Pseudomonas aeruginosa) [µg/mL]	activity against MRSA among analogues (MRSA)	activity against VRE among analogues (VRE)	further results
Cl.N=C(NN=Cc1cccc(O)c1O)NN=Cc1cccc(O)c1O [NCL101]	32	32	64	128	>128	>128							greatest activity	greatest activity	
Cl.N=C(NN=Cc1ccccc1[N+](=O)[O-])NN=Cc1ccccc1[N+](=O)[O-] [NCL102]	>128	>128	>128	>128	>128	>128									
Cl.N=C(N/N=C/c1ccc(O)cc1O)N/N=C/c1ccc(O)cc1O [NCL103]	>128	>128	>128	>128	>128	>128									
Cl.N=C(NN=Cc1cc(O)c(O)cc1O)NN=Cc1cc(O)c(O)cc1O [NCL104]	64	64	128	>128	>128	>128							greatest activity		
Cl.N=C(NN=Cc1ccc(O)c(O)c1O)NN=Cc1ccc(O)c(O)c1O [NCL105]	64	>128	64	>128	>128	>128								greatest activity	
Cl.N=C(NN=Cc1ccc(O)c(O)c1)NN=Cc1ccc(O)c(O)c1 [NCL111]	64	64	64	>128	>128	>128							greatest activity	greatest activity	
Cl.N=C(NN=Cc1cc(Cl)cc(Cl)c1)NN=Cc1cc(Cl)cc(Cl)c1 [NCL114]	>128	>128	>128	>128	>128	>128									
Nc1nc(NNC(=O)c2ccccc2)cc(NNC(=O)c2ccccc2)n1 [NCL194]							>128 µg/mL	>128 µg/mL	>128	>128	>128	>128			
Nc1nc(N/N=C/c2ccccc2)cc(N/N=C/c2ccccc2)n1 [NCL199]							4 µg/mL (≈ 12.1 µM)						greatest activity		MIC (MRSA; [5]): 2 µg/mL (≈ 6.04 µM); MIC (MRSA; [6]): 4 µg/mL (≈ 12.1 µM); MIC (MRSA; [9]): 3.5 µg/mL (≈ 10.6 µM); MIC (VRE; [7]): > 128 µg/mL; MIC (VRE; [8]): > 128 µg/mL; MIC (Escherichia coli): > 128 µg/mL; MIC (Pseudomonas aeruginosa): > 128 µg/mL
CC(C)(C)c1ccc(/C=N/Nc2cc(N/N=C/c3ccc(C(C)(C)C)cc3)nc(N)n2)cc1 [NCL200]							>128 µg/mL	>128 µg/mL	>128	>128	>128	>128			
CN(C)c1ccc(/C=N/Nc2cc(N/N=C/c3ccc(N(C)C)cc3)nc(N)n2)cc1 [NCL201]							32 µg/mL and 64 µg/mL	16 µg/mL and 32 µg/mL	>128	>128	>128	>128	greatest activity		
C/C(=N\Nc1cc(N/N=C(\C)c2ccc(Cl)cc2)nc(N)n1)c1ccc(Cl)cc1 [NCL204]							8 µg/mL (≈ 18.7 µM)	8 µg/mL (≈ 18.7 µM)					greatest activity	greatest activity	MIC (MRSA; [5]): 4 µg/mL (≈ 9.34 µM); MIC (MRSA; [6]): 4 µg/mL (≈ 9.34 µM); MIC (MRSA; [9]): 6 µg/mL (≈ 14 µM); MIC (VRE; [7]): 64 µg/mL (≈ 149 µM); MIC (VRE; [8]): > 128 µg/mL; MIC (Escherichia coli): > 128 µg/mL; MIC (Pseudomonas aeruginosa): > 128 µg/mL
Nc1nc(N/N=C/c2ccccc2Cl)cc(N/N=C/c2ccccc2Cl)n1 [NCL205]							4 µg/mL and 8 µg/mL	4 µg/mL and 8 µg/mL	64 (≈ 160 µM)	>128	>128	>128	greatest activity	greatest activity	MRSA (MRSA; bioassay ranking, MRSA): 6 µg/mL
Cc1ccc(/C=N/Nc2nc(N)nc(N/N=C/c3ccc(C)cc3)n2)cc1 [NCL206]							>128 µg/mL	>128 µg/mL	>128	>128	>128	>128			

The next lines start with results.

MIC (μg/ml) at 24 hours, MRSA 1 (MRSA; [1]) [µg/mL]	MIC (μg/ml) at 24 hours, MRSA 2 (MRSA; [2]) [µg/mL]	MIC (μg/ml) at 24 hours, VRE 1 (VRE; [3]) [µg/mL]	MIC (μg/ml) at 24 hours, VRE 2 (VRE; [4]) [µg/mL]	MIC (μg/ml) at 24 hours, E. coli (Escherichia coli; duplicate lines per compound) [µg/mL]	MIC (μg/ml) at 24 hours, P. aeruginosa (Pseudomonas aeruginosa; duplicate lines per compound) [µg/mL]	MIC (μg/ml) at 24 hours, MRSA 1 (MRSA; MRSA 1, 24 hours)	MIC (μg/ml) at 24 hours, MRSA 2 (MRSA; MRSA 2, 24 hours)	MIC (μg/ml) at 24 hours, VRE 1 (VRE; VRE 1, 24 hours) [µg/mL]	MIC (μg/ml) at 24 hours, VRE 2 (VRE; VRE 2, 24 hours) [µg/mL]	MIC (μg/ml) at 24 hours, E. coli (Escherichia coli) [µg/mL]	MIC (μg/ml) at 24 hours, P. aeruginosa (Pseudomonas aeruginosa) [µg/mL]	Structure (SMILES)	activity against MRSA among analogues (MRSA)	activity against VRE among analogues (VRE)	further results
>128	>128	>128	>128	>128	>128							COc1cc(C=NNC(=N)NN=Cc2cc(O)c(O)c(OC)c2)cc(O)c1O.Cl [NCL106]			
64	64	64	128	>128	>128							Cl.N=C(NN=Cc1cccc(O)c1)NN=Cc1cccc(O)c1 [NCL108]	greatest activity	greatest activity	
>128	>128	>128	>128	>128	>128							Cl.N=C(N/N=C/c1cccc([N+](=O)[O-])c1)N/N=C/c1cccc([N+](=O)[O-])c1 [NCL109]			
>128	>128	>128	>128	>128	>128							Cl.N=C(NN=Cc1ccc([N+](=O)[O-])cc1)NN=Cc1ccc([N+](=O)[O-])cc1 [NCL110]			
>128	128	64	32	>128	>128							Cl.N=C(NN=Cc1ccc(-c2ccccc2)cc1)NN=Cc1ccc(-c2ccccc2)cc1 [NCL112]		greatest activity	
						128 µg/mL (≈ 334 µM)	64 µg/mL (≈ 167 µM)	32 (≈ 83.5 µM)	>128	>128	>128	CN(C)c1ccc(C=NNC(=N)NN=Cc2ccc(N(C)C)cc2O)c(O)c1 [NCL171]	greatest activity	greatest activity	
							32 µg/mL (≈ 88.1 µM)	64 (≈ 176 µM)			128 (≈ 352 µM)	Nc1nc(N/N=C/c2ccc(O)cc2)cc(N/N=C/c2ccc(O)cc2)n1 [NCL196, 4,4′-((1E,1′E)-((2-aminopyrimidine-4,6-diyl)bis(hydrazin-2-yl-1ylidene))bis(methanylylidene))diphenol]			MIC (MRSA; [5]): 32 µg/mL (≈ 88.1 µM); MIC (MRSA; [6]): 64 µg/mL (≈ 176 µM); MIC (VRE; [7]): 32 µg/mL (≈ 88.1 µM); MIC (VRE; [8]): 64 µg/mL (≈ 176 µM); MIC (Escherichia coli): 64 µg/mL (≈ 176 µM); MIC (Pseudomonas aeruginosa): 64 µg/mL (≈ 176 µM)
						>128 µg/mL	>128 µg/mL	>128	>128	>128	>128	CC(C)(C)c1ccc(/C=N/Nc2cc(N/N=C/c3ccc(C(C)(C)C)cc3)nc(N)n2)cc1.Cl.Cl [NCL198]			
